The source of these data is the supplement of paper PMC11208160.

This data set can be described thus: recombinant barcode read abundance after kanamycin selection (control-corrected) (log10(CPM+1)); higher = more efficient recombination; sequences stand for … in AGTGCAGAGAAAATCGGCCAGTTTTCTCTGCCTGCAGTCCGCATGCCGT…ATTTATGCAGCGGACTGCCTTTCTCCCAAAGTGATAAACCGGACAGTATCATGGACCGGTTTTCCCGGTAATCCGTATTTGCAAGGTTGGTTTCACT; site = the 11-nt target. Put shortly:
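Values are log10(CPM+1) from a pooled E. coli screen of targets paired with IS621 bridge RNA target-binding loops. Recombination efficiency here means counts per million of recombinant-junction barcodes, averaged and control-corrected. Plates were chloramphenicol/ampicillin LB agar for the control and chloramphenicol/ampicillin/kanamycin with 0.1 mM IPTG, two replicates each.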
Take “TGATACCCTTGGGTTCTAACCTGTTGCGTGA [TGATACCCTAC_LTGcore_CT_RTGcore_TC] (site TGATACCCTAC) (LTG core: CT, RTG core: TC)”: the “recombinant barcode read abundance (log10)” value came out at 0.864.
For the sequence “TGATACCCTTGGGTTCTAACCTGTTGCGTGG [TGATACCCTAC_LTGcore_CT_RTGcore_CC] (site TGATACCCTAC) (LTG core: CT, RTG core: CC)”, the “recombinant barcode read abundance (log10)” value amounted to 0.651.
With “TGATACCGATGGGTTCTAACCTGTTGCGTAG [TGATACCCTAC_LTGcore_GA_RTGcore_CT] (site TGATACCCTAC) (LTG core: GA, RTG core: CT)” the figure was 0.221; with “TGATACCGTTGGGTTCTAACCTGTTGCGTAC [TGATACCCTAC_LTGcore_GT_RTGcore_GT] (site TGATACCCTAC) (LTG core: GT, RTG core: GT)”, 0.0235; with “TGATACCGTTGGGTTCTAACCTGTTGCGTAG [TGATACCCTAC_LTGcore_GT_RTGcore_CT] (site TGATACCCTAC) (LTG core: GT, RTG core: CT)”, 0.236.
With “TGTATTCACTGGGTTCTAACCTGTTGCCTAG [TGTATTCCTAG_LTGcore_AC_RTGcore_CT] (site TGTATTCCTAG) (LTG core: AC, RTG core: CT)” the figure was 0.0447; with “TGTATTCACTGGGTTCTAACCTGTTGCCTGT [TGTATTCCTAG_LTGcore_AC_RTGcore_AC] (site TGTATTCCTAG) (LTG core: AC, RTG core: AC)”, 0.251; with “TGTATTCCTTGGGTTCTAACCTGTTGCCTAA [TGTATTCCTAG_LTGcore_CT_RTGcore_TT] (site TGTATTCCTAG) (LTG core: CT, RTG core: TT)”, 0.0404.
With “TGTATTCCTTGGGTTCTAACCTGTTGCCTGC [TGTATTCCTAG_LTGcore_CT_RTGcore_GC] (site TGTATTCCTAG) (LTG core: CT, RTG core: GC)” the figure was 0.133; with “TGTATTCCTTGGGTTCTAACCTGTTGCCTGG [TGTATTCCTAG_LTGcore_CT_RTGcore_CC] (site TGTATTCCTAG) (LTG core: CT, RTG core: CC)”, 0.0432.
As for “TGTATTCCTTGGGTTCTAACCTGTTGCCTTT [TGTATTCCTAG_LTGcore_CT_RTGcore_AA] (site TGTATTCCTAG) (LTG core: CT, RTG core: AA)”, the “recombinant barcode read abundance (log10)” value came to 0.0134.
On to “TGTATTCGCTGGGTTCTAACCTGTTGCCTAG [TGTATTCCTAG_LTGcore_GC_RTGcore_CT] (site TGTATTCCTAG) (LTG core: GC, RTG core: CT)”, for which the “recombinant barcode read abundance (log10)” value is 0.0931.
As to “TGTATTCGGTGGGTTCTAACCTGTTGCCTAG [TGTATTCCTAG_LTGcore_GG_RTGcore_CT] (site TGTATTCCTAG) (LTG core: GG, RTG core: CT)”, the “recombinant barcode read abundance (log10)” value was 0.0184.
Regarding “TGTATTCTATGGGTTCTAACCTGTTGCCTAG [TGTATTCCTAG_LTGcore_TA_RTGcore_CT] (site TGTATTCCTAG) (LTG core: TA, RTG core: CT)”, the “recombinant barcode read abundance (log10)” value turned out to be 0.0251.
The figure for “TGTATTCTCTGGGTTCTAACCTGTTGCCTGA [TGTATTCCTAG_LTGcore_TC_RTGcore_TC] (site TGTATTCCTAG) (LTG core: TC, RTG core: TC)” is 0.141; for “TGTATTCTGTGGGTTCTAACCTGTTGCCTAG [TGTATTCCTAG_LTGcore_TG_RTGcore_CT] (site TGTATTCCTAG) (LTG core: TG, RTG core: CT)” it is 0.0339; for “TGTATTCTTTGGGTTCTAACCTGTTGCCTAA [TGTATTCCTAG_LTGcore_TT_RTGcore_TT] (site TGTATTCCTAG) (LTG core: TT, RTG core: TT)” it is 0.0888.
On to “TTATAAAAATGGGTTCTAACCTGTTGCCTAG [TTATAAACTAG_LTGcore_AA_RTGcore_CT] (site TTATAAACTAG) (LTG core: AA, RTG core: CT)”, for which the “recombinant barcode read abundance (log10)” value came out at 0.0784.
